Experimental data published in patent US8840873B2, “Method of treating second and third degree burns using oxidative reductive potential water solution” (priority 2005, dated 2014).
Read-outs that look alike come from different tables or passages of the source.

Key:
primary HDF cultures = experiment: SA-β-galactosidase expression in HDFs after chronic exposure; type: cell-based, human; details: 20 population doublings (one month), ORP water solution 10% or HP 5 μM
Source text: The results are depicted in FIG. 6.

[1] = system: human diploid fibroblasts (HDFs); experiment: 8-OHdG DNA adducts in HDFs (ELISA); details: HP 500 μM
[2] = system: human diploid fibroblasts (HDFs); experiment: Cell viability, apoptosis and necrosis in HDFs by flow cytometry; details: for apoptosis (Annexin-V): 880 mM HP; for necrosis (cells incorporating propidium iodide) / Cell viability (7AAD): pure ORP water solution or 880 mM HP
[3] = system: murine polychromatic erythrocytes (bone marrow); details: mice; for PCE/NCE ratio: intraperitoneal, cyclophosphamide 8 mg/mL, 12.5 ml/kg on day 2
Description: The mammalian in vivo micronucleus test is used for the identification of substances which cause damage to chromosomes or the mitotic apparatus of murine polychromatic erythrocytes. This damage results in the formation of “micronuclei,” intracellular structures containing lagging chromosome fragments or isolated whole chromosomes. […] The positive control mice received a single intraperitoneal injection of cyclophosphamide (8 mg/mL, 12.5 ml/kg) on day 2. All mice were observed immediately after injection for any adverse reactions. […] On day 3, all mice were weighed and terminated.
The femurs were excised from the terminated mice, the bone marrow was extracted, and duplicate smear preparations were performed for each mouse. The bone marrow slides for each animal were read at 40× magnification. The ratio of polychromatic erythrocytes (PCE) to normochromatic erythrocytes (NCE), an index of bone marrow toxicity, was determined for each mouse by counting a total of at least 200 erythrocytes. Then a minimum of 2000 scoreable PCE per mouse were evaluated for the incidence of micronucleated polychromatic erythrocytes. Statistical analysis of the data were done using the Mann and Whitney test (at 5% risk threshold) from a statistical software package (Statview 5.0, SAS Institute Inc., USA).

| SMILES | cells expressing SA-β-Gal (primary HDF cultures) [%] | 8-OHdG adducts relative to control-treated cells ([1]; 30 minutes treatment then 3 hour recovery in supplemented DMEM) | 8-OHdG adducts relative to control-treated cells ([1]; 30 minutes treatment, DNA extracted right after exposure) | apoptosis (Annexin-V) ([2]; 5 min exposure) [%] | necrosis (cells incorporating propidium iodide) ([2]; 5 min exposure) [%] | Cell viability (7AAD) ([2]; 5 minute exposure) [%] | apoptosis (Annexin-V) ([2]; 30 min exposure) [%] | Cell viability (7AAD) ([2]; 30 min exposure) [%] | necrosis (cells incorporating propidium iodide) ([2]; 30 min exposure) [%] | PCE/NCE ratio ([3]; females) | number of polychromatic erythrocytes bearing micronuclei ([3]; males, intraperitoneal 12.5 ml/kg) | PCE/NCE ratio ([3]; males) |
| --- | --- | --- | --- | --- | --- | --- | --- | --- | --- | --- | --- | --- |
| OO [HP, hydrogen peroxide] | 86 | about 5 times | about 25 fold | 15 | 20 | 55 | 20 | 5 | 75 | – | – | – |
| O=P1(N(CCCl)CCCl)NCCCO1 (stereo not drawn) [cyclophosphamide] | – | – | – | – | – | – | – | – | – | 0.73 | 11.0 | 0.77 |
